Where “and” joins values, the source holds several entries; their conditions need not be identical. Identical values can stand only once.
Assay: xn = mol fraction of the nth substance listed

OCCCCO + C[N+](C)(C)CCO.[Cl-]
viscosity [mPa·s]
Details | 293.15 K | 298.15 K | 298.2 K | 303.15 K | 308.15 K | 308.2 K | 313.15 K | 318.15 K | 318.2 K | 323.15 K
101 kPa, x2 = 0.2 | – | 70.2 | – | – | – | – | – | 32.3 | – | –
101.3 kPa, x1 = 0.7519 | 112.9 | 87.4 | – | 70.16 | 59.73 | – | 47.89 | 39.53 | – | 33.04
101.3 kPa, x1 = 0.8 | 99.69 | 78.77 | – | 62.96 | 51.08 | – | 41.67 | 34.51 | – | 28.9
101.3 kPa, x1 = 0.8334 | 93.6 | 74.9 | – | 59.28 | 48 | – | 39.41 | 32.5 | – | 27.36
101.3 kPa, x1 = 0.8575 | 91.44 | 72.28 | – | 57.86 | 46.72 | – | 38.31 | 31.67 | – | 26.47
101.3 kPa, x2 = 0.1672 | – | – | 75.5 | – | – | 58.2 | – | – | 42.8 | –
101.3 kPa, x2 = 0.2 | – | – | – | 54.75 | 44.49 | – | 36.66 | 30.4 | – | 25.74
101.3 kPa, x2 = 0.25 | – | – | – | 60.64 | 49.3 | – | 40.55 | 33.94 | – | 28.53

O=S=O + Cc1cc(C)cc(C)c1
298.15 K, 101 kPa
Details | viscosity [mPa·s]
x1 = 0.137 | 0.6381
x1 = 0.223 | 0.6062
x1 = 0.255 | 0.5926

Cc1cc(C)cc(C)c1 + Cc1ccccc1
viscosity [mPa·s]
Details | 100 kPa | 101.33 kPa
298.15 K, x2 = 0.5 | 0.5957 | 0.5957
298.24 K, x2 = 0.8 | 0.5709 | 0.5709
303.16 K, x2 = 0.5 | – | 0.5616
303.18 K, x2 = 0.8 | – | 0.5394
307.82 K, x2 = 0.8 | – | 0.5125
308.22 K, x2 = 0.5 | – | 0.5315
313.14 K, x2 = 0.5 | 0.505 | 0.505
313.26 K, x2 = 0.8 | 0.4837 | 0.4837
317.67 K, x2 = 0.8 | – | 0.4619
318.09 K, x2 = 0.5 | – | 0.4792
322.66 K, x2 = 0.8 | – | 0.4389
322.74 K, x2 = 0.5 | – | 0.4583

O=S=O + Cc1ccccc1
298.15 K, 101 kPa
Details | viscosity [mPa·s]
x1 = 0.0185 | 0.5449
x1 = 0.0455 | 0.5339
x1 = 0.104 | 0.5121
x1 = 0.1897 | 0.4881

Cc1cc(C)cc(C)c1 + ClC(Cl)(Cl)Cl
298.15 K, 101 kPa
Details | viscosity [mPa·s]
x1 = 0.1 | 0.8579
x1 = 0.2 | 0.8194
x1 = 0.3 | 0.7889
x1 = 0.4 | 0.7637
x1 = 0.5 | 0.7421
x1 = 0.6 | 0.7226
x1 = 0.7 | 0.7044
x1 = 0.8 | 0.6875
x1 = 0.9 | 0.672

O=S=O + ClC(Cl)(Cl)Cl
298.15 K, 101 kPa
Details | viscosity [mPa·s]
x1 = 0.00784 | 0.8572
x1 = 0.0163 | 0.841
x1 = 0.0185 | 0.8352
x1 = 0.0267 | 0.82

O=S=O + ClC(Cl)Cl
298.15 K, 101 kPa
Details | viscosity [mPa·s]
x1 = 0.0035 | 0.5141
x1 = 0.004762 | 0.5053
x1 = 0.00539 | 0.5022

OCCCCO + NC=O
Details | viscosity [mPa·s]
318.15 K, 101 kPa, x2 = 0.1052 | 18.95

Cc1ncc(CO)c(CO)c1O.Cl + O
101 kPa
Details | viscosity
293.15 K, x1 = 0.001798 | 1.047 mPa·s
293.15 K, x1 = 0.0018 | 1.047 mPa·s
298.15 K, x1 = 0.00081 | 0.9087 mPa·s
298.15 K, x1 = 0.000909 | 0.918 mPa·s
298.15 K, x1 = 0.001809 | 0.95 mPa·s
298.15 K, x1 = 0.002028 | 0.9328 mPa·s
298.15 K, x1 = 0.002489 | 0.9415 mPa·s
298.15 K, x1 = 0.002657 | 0.96 mPa·s
298.15 K, x1 = 0.003638 | 0.99 mPa·s
298.15 K, x1 = 0.003926 | 0.9708 mPa·s
298.15 K, x1 = 0.004487 | 1.007 mPa·s
298.15 K, x1 = 0.004756 | 0.9841 mPa·s
298.15 K, x1 = 0.005406 | 1.027 mPa·s
298.15 K, x1 = 0.006266 | 1.04 mPa·s
298.15 K, x1 = 0.006666 | 1.03 mPa·s
298.15 K, x1 = 0.007307 | 1.06 mPa·s
298.15 K, x1 = 0.00813 | 1.073 mPa·s
298.15 K, x1 = 0.008945 | 1.084 mPa·s
298.15 K, x1 = 0.009813 | 1.108 mPa·s
303.15 K, x1 = 0.0018 | 0.832 mPa·s
303.15 K, x1 = 0.00359 | 0.8603 mPa·s and 0.8604 mPa·s
308.15 K, x1 = 0.002028 | 0.7519 mPa·s
308.15 K, x1 = 0.002489 | 0.7601 mPa·s
308.15 K, x1 = 0.003926 | 0.7829 mPa·s
308.15 K, x1 = 0.004756 | 0.7924 mPa·s
308.15 K, x1 = 0.006666 | 0.828 mPa·s
313.15 K, x1 = 0.001798 | 0.6798 mPa·s and 0.6802 mPa·s and 0.68 mPa·s
313.15 K, x1 = 0.00359 | 0.7025 mPa·s
313.15 K, x1 = 0.007154 | 0.7543 mPa·s and 0.7545 mPa·s
318.15 K, x1 = 0.002028 | 0.6236 mPa·s
318.15 K, x1 = 0.002489 | 0.6303 mPa·s
318.15 K, x1 = 0.003926 | 0.649 mPa·s
318.15 K, x1 = 0.004756 | 0.6605 mPa·s
318.15 K, x1 = 0.006666 | 0.6863 mPa·s
323.15 K, x1 = 0.001798 | 0.5675 mPa·s
323.15 K, x1 = 0.0018 | 0.5673 mPa·s
323.15 K, x1 = 0.005375 | 0.6071 mPa·s and 0.6075 mPa·s and 0.6074 mPa·s

O=P([O-])([O-])O.[Na+].[Na+] + O
viscosity [mPa·s]
Details | 293.15 K | 298.15 K | 303.15 K | 308.15 K
100 kPa, x1 = 0.01115 | – | 1.215 | 1.095 | –
100 kPa, x1 = 0.01333 | 1.455 | – | – | –
100 kPa, x1 = 0.01698 | – | – | – | 1.175
101 kPa, x1 = 0.0018 | – | 0.948 | 0.8587 | 0.7663
101 kPa, x1 = 0.0054 | – | 1.05 | 0.968 | 0.8559
101 kPa, x1 = 0.0089 | – | 1.232 | 1.076 | 0.94
101 kPa, x1 = 0.012 | – | 1.441 | 1.228 | 1.152
101 kPa, x1 = 0.016 | – | 1.727 | 1.536 | 1.452

OCCOCCOCCOCCOCCOCCO + O
viscosity [mPa·s], 100 kPa
Details | 293.15 K | 298.15 K | 303.15 K | 308.15 K | 313.15 K | 318.15 K | 323.15 K
x2 = 0.086 | 84.1 | 63.85 | 49.38 | 39.16 | 31.47 | 25.71 | 21.3
x2 = 0.154 | 83.43 | 63.21 | 48.95 | 38.71 | 31.12 | 25.38 | 21.01
x2 = 0.191 | 79.58 | 61.16 | 47.41 | 37.44 | 30.09 | 24.56 | 20.43
x2 = 0.222 | 81.84 | 62.01 | 47.77 | 37.78 | 30.44 | 24.83 | 20.66
